Data reported in the supplement of paper PMC7108870.

Legend:
HEK293sieSTAT3(wt) [1] = assay: drug sensitivity score (DSS), cytotoxicity CellTox Green (DSS (dimensionless)); higher = more cytotoxic; extreme values may be limits of the assay; conditions: 72 h; STAT3 variant: wild type
How it was run: (§1)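 Compounds were acoustically pre-plated in 384-well plates at 5 concentrations spaced by 10-fold dilutions, and HEK293 cells overexpressing wild-type or mutant STAT3 and carrying a STAT3-dependent luciferase reporter were added at 100,000 cells/ml in 20 μl. After 72 hours at 37°C and 5% CO2, the plates were read on a PHERAstar FS for CellTox Green fluorescence (485/520 nm) and then CellTiter-Glo luminescence. A drug sensitivity score derived from dose-response curve area was calculated in Breeze from values normalised to negative and positive control wells.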

HEK293sieSTAT3(Y640F) [2] = assay: as above; conditions: 72 h; STAT3 variant: Y640F (constitutively active)
How it was run: as §1

HEK293sieSTAT3(wt) [3] = assay: drug sensitivity score (DSS), viability CellTiter-Glo (DSS (dimensionless)); higher = more growth inhibition; extreme values may be limits of the assay; conditions: 72 h; STAT3 variant: wild type
How it was run: as §1

HEK293sieSTAT3(Y640F) [4] = assay: as above; conditions: 72 h; STAT3 variant: Y640F (constitutively active)
How it was run: as §1

Structure (SMILES)	drug sensitivity score (HEK293sieSTAT3(wt) [1])	drug sensitivity score (HEK293sieSTAT3(Y640F) [2])	drug sensitivity score (HEK293sieSTAT3(wt) [3])	drug sensitivity score (HEK293sieSTAT3(Y640F) [4])
COc1ncc(-c2ccc3nccc(-c4ccnnc4)c3c2)cc1NS(=O)(=O)c1ccc(F)cc1F [Omipalisib] (top concentration tested 1000 nM)	6.37	0	22.1	18.3
CC(C)c1cc(C(=O)N2Cc3ccc(CN4CCN(C)CC4)cc3C2)c(O)cc1O [Onalespib] (top concentration tested 2500 nM)	18.9	7.91	24.5	20.9
COC[C@H](NC(=O)c1cnc(C)s1)C(=O)N[C@@H](COC)C(=O)N[C@@H](Cc1ccccc1)C(=O)[C@@]1(C)CO1 [Oprozomib] (top concentration tested 2500 nM)	28.3	21.5	28.8	23.6
Cc1[nH]c(/C=C2\C(=O)Nc3ccccc32)c(C)c1CCC(=O)O [Orantinib] (top concentration tested 10000 nM)	21.6	18.4	1.33	1.85
CNC(=O)c1ccc2cc([C@@]3(O)CCn4cncc43)ccc2c1 [Orteronel] (top concentration tested 10000 nM)	0	0	0	0
C=CC(=O)Nc1cc(Nc2nccc(-c3cn(C)c4ccccc34)n2)c(OC)cc1N(C)CCN(C)C [Osimertinib] (top concentration tested 2500 nM)	6.55	0.47	8.88	6.46
O=C(O)C(=O)O.[NH-][C@@H]1CCCC[C@H]1[NH-].[Pt+2] [Oxaliplatin] (top concentration tested 100000 nM)	12	5.26	19.3	16.9
C=CCc1cccc(/C=N/NC(=O)CN2CCN(Cc3ccccc3)CC2)c1O [PAC-1] (top concentration tested 10000 nM)	3.52	0	7.56	4.7
O=C(Nc1cccnc1)N1CCC(Cc2cccc(Oc3ccc(C(F)(F)F)cn3)c2)CC1 [PF-3845] (top concentration tested 10000 nM)	0	0	3.05	1.51
COc1ccccc1S(=O)(=O)Nc1ccc2c(c1)CN(C)C(=O)N2 [PFI-1] (top concentration tested 10000 nM)	6.8	0.33	5.96	5.5
CN1CCN(c2cc(C(=O)Nc3ccc4c(c3)-c3c(c(C(N)=O)nn3-c3ccc(F)cc3)CC4)c(Cl)cn2)CC1 [PHA 408] (top concentration tested 10000 nM)	8.63	5.61	8.88	9.12
CCn1nnc2c(N3CCOCC3)nc(-c3ccc(NC(=O)Nc4ccc(C(=O)N5CCN(C)CC5)cc4)cc3)nc21 [PKI-402] (top concentration tested 2500 nM)	5.48	0	16.8	16.7
O=C(Nc1cc(Cl)cc2c1[nH]c1cnccc12)c1cccnc1 [PS-1145] (top concentration tested 25000 nM)	0.08	1.94	3.94	0
COc1cc(Br)c(Nc2nc(-c3c(C)nc4ncccn34)cs2)c(Br)c1 [PTC-209] (top concentration tested 10000 nM)	2.2	0.1	15.7	16
CC(=O)O[C@H]1C(=O)[C@@]2(C)[C@H]([C@H](OC(=O)c3ccccc3)[C@]3(O)C[C@H](OC(=O)[C@H](O)[C@@H](NC(=O)c4ccccc4)c4ccccc4)C(C)=C1C3(C)C)[C@]1(OC(C)=O)CO[C@@H]1C[C@@H]2O [Paclitaxel] (top concentration tested 1000 nM)	16.8	0.91	23.2	16.4
C1=N/C2=N/c3ccc(OCCN4CCCC4)c(c3)COC/C=C/COCc3cccc(c3)C(=C1)N2 [Pacritinib] (top concentration tested 10000 nM)	10.8	6.22	11.1	12.1
CC(=O)c1c(C)c2cnc(Nc3ccc(N4CCNCC4)cn3)nc2n(C2CCCC2)c1=O [Palbociclib] (top concentration tested 10000 nM)	7.3	1.93	6.99	5.65
COc1ccc(COc2cc3oc(=O)c4cc(C(C)O)ccc4c3cc2OC)cc1 (stereo not drawn) [Palomid-529] (top concentration tested 10000 nM)	3.06	0	2.21	2.18
Cc1[nH]c2ccccc2c1CCNCc1ccc(/C=C/C(=O)NO)cc1 [Panobinostat] (top concentration tested 1000 nM)	17.8	11.6	20.4	20.6
C/C(=C\c1csc(C)n1)[C@@H]1C[C@@H]2O[C@]2(C)CCC[C@H](C)[C@H](O)[C@@H](C)C(=O)C(C)(C)[C@@H](O)CC(=O)O1 [Patupilone] (top concentration tested 1000 nM)	15.5	4.17	21.9	19.1
Cc1ccc(Nc2nccc(N(C)c3ccc4c(C)n(C)nc4c3)n2)cc1S(N)(=O)=O [Pazopanib] (top concentration tested 10000 nM)	0	0	0.89	0.04
CCOc1cc2ncc(C#N)c(Nc3ccc(F)c(Cl)c3)c2cc1NC(=O)/C=C/CN(C)C [Pelitinib] (top concentration tested 2500 nM)	3.88	1.79	9.21	6.05
